Test results as given in patent EP1731520A1, “Pyrrolo[2,3-d]pyrimidine derivatives which are antagonists of adenosine A1, A2A, and A3” (OSI Pharmaceuticals, Inc., priority 1999, dated 2001).
Read-outs that look alike come from different tables or passages of the source.

Key:
[1] = target: human A2a receptor subtype (Homo sapiens, UniProt P29274); assay: Adenosine 2a receptor subtype competition radioligand binding, [3H] CGS-21680, HEK293 membranes; details: for Ki-A2a (selectivity versus other three subtypes): Table 16, Adenosine A2a Receptor Selective Compounds
human A2a receptor subtype, sequence (P29274 whole entry): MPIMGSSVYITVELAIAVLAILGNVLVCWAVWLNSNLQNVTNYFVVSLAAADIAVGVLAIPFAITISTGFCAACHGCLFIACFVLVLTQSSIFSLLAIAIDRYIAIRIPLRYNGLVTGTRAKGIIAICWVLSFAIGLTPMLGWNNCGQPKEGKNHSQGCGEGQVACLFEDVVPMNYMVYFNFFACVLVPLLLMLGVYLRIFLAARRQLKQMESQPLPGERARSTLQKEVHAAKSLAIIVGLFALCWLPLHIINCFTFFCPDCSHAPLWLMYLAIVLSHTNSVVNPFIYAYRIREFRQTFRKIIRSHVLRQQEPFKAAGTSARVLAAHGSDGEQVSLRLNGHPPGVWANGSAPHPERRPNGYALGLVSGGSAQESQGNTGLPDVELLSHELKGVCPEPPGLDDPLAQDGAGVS

[2] = target: T1, human A2b receptor subtype (Homo sapiens, UniProt P29275); assay: Adenosine 2b receptor subtype competition radioligand binding, [3H] DPCPX, HEK293 membranes
T1 sequence (P29275 1-332): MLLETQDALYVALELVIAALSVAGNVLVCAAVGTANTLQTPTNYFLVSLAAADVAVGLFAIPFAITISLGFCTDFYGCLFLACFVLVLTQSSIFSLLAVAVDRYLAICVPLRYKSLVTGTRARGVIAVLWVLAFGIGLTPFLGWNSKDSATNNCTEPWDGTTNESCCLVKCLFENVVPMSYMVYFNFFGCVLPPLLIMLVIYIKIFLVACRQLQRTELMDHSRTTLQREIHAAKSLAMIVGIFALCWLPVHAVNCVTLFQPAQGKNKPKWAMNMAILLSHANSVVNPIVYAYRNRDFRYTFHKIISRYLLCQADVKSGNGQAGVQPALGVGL

[3] = target: T2, human A3 receptor subtype (Homo sapiens, UniProt P0DMS8); assay: Adenosine 3 receptor competition radioligand binding, [125I] AB-MECA, HEK293 membranes; details: for Ki-A3 (selectivity versus other three subtypes): Table 17, Adenosine A3 Receptor Selective Compounds
T2 sequence (P0DMS8 1-318): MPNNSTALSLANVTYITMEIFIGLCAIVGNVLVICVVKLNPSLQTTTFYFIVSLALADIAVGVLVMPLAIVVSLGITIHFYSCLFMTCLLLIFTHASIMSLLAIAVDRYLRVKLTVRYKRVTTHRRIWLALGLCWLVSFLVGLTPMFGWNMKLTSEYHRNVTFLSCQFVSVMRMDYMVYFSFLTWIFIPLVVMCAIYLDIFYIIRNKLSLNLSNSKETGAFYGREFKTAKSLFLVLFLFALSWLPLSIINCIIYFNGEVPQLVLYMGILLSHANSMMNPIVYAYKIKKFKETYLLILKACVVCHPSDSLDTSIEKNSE

human A2a receptor = details: read-out: Reported Ki; agonist; cited from earlier work
[4] = target: human A1 receptor subtype (Homo sapiens, UniProt P30542)
human A1 receptor subtype, sequence (P30542 whole entry): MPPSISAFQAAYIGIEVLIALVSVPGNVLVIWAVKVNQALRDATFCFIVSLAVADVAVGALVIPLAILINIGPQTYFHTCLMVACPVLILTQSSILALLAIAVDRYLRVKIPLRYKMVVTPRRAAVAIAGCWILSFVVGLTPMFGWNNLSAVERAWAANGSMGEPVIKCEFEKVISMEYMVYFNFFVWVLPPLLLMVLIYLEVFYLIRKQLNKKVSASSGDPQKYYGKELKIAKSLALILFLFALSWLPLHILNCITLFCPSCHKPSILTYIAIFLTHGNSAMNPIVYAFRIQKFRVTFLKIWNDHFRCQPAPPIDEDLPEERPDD

human A3 receptor = target: T3, human A3 receptor (Homo sapiens, UniProt P0DMS8); assay: Displacement binding of [3H]CPX, yeast membranes expressing hA3R
T3 sequence (P0DMS8 1-318): T2 sequence (P0DMS8 1-318)

[5] = target: human adenosine A1 receptor (Homo sapiens, UniProt P30542); assay: Yeast β-Galactosidase reporter gene assay (strain CY12660): inhibition of NECA-induced β-Galactosidase activity; details: read-out: Al Yeast IC50
human adenosine A1 receptor, sequence (P30542 whole entry): as above

[6] = system: human A1 adenosine receptor; details: synthetic agonist; cited from earlier work
[7] = read-out: Binding Ki (nM) A2a, Table 13
[8] = read-out: Binding Ki (nM) A2b, Table 13

**Q.** With `O[C@H]1CC[C@H](Nc2nc(-c3cccc(Cl)c3)nc3[nH]ccc23)CC1` [Compound 1320, 4-(trans-4-hydroxycyclohexyl)amino-2-(3-chlorophenyl)-7H-pyrrolo[2,3d] pyrimidine] as the compound, how does the Ki [1] read?
**A.** The Ki was 531 nM.

**Q.** And the Ki [2]?
**A.** The Ki was 530 nM.

**Q.** And the Ki [3]?
**A.** The Ki was 419 nM.

**Q.** For `O[C@H]1CC[C@H](Nc2nc(-c3ccccc3)nc3[nH]ccc23)CC1` [Compound 1318], which Ki [2] is on record?
**A.** The Ki was 2310 ± 926 nM.

**Q.** And the Ki [3]?
**A.** The Ki was 630 ± 76 nM.

**Q.** With `COC(=O)C(C)(C)NCc1cc2c(N3CCC[C@@H]3CO)nc(-c3ccccc3)nc2[nH]1` [Compound 1606] as the compound, how does the “Ki-A2a (selectivity versus other three subtypes)” value [1] read?
**A.** Its value is “* (at least 5 times more selective than other three subtypes.)”.

**Q.** For `OC[C@H]1CCCN1c1nc(-c2ccccc2)nc2[nH]ccc12` [Compound 1603], which “Ki-A2a (selectivity versus other three subtypes)” value [1] is on record?
**A.** The value was “* (at least 5 times more selective than other three subtypes.)”.

**Q.** Which “Ki-A2a (selectivity versus other three subtypes)” value [1] does the source give for `NC(=O)[C@H]1CCCN1c1nc(-c2ccncc2)nc2[nH]ccc12` [Compound 1602] here?
**A.** Its value is “* (at least 5 times more selective than other three subtypes.)”.

**Q.** What does the source list for `O[C@H]1CC[C@H](Nc2nc(-c3ccncc3)nc3[nH]ccc23)CC1` [Compound 1321, 4-(trans-4-hydroxycyclohexyl)amino-2-(4-pyridyl)-7H-pyrrolo[2,3d]pyrimidine]?
**A.** Ki [1]: 131 nM; Ki [2]: 1030 nM; activity at 10 µM ([3]; read-out: % activity @ 10 µM, A3): 54%

**Q.** With `Cc1[nH]c2nc(-c3ccccc3)nc(NCCNC(=O)C3(N)CC3)c2c1C` [Compound 1313] as the compound, how does the “% activity @ 10 µM, A2a” value ([1]; Table 13, in %, 10 µM) read?
**A.** Its value is 65%.

**Q.** What about the “% activity @ 10 µM, A1” value ([4]; Table 13, in %, 10 µM) of the same compound?
**A.** The value was 30%.

**Q.** Which results are given for `Cc1[nH]c2nc(-c3ccccc3)nc(NCCCNC(=O)CN)c2c1C` [Compound 1316]?
**A.** Ki [1, 7]: 710 nM; Ki [2, 8]: 710 nM; Ki [3]: 97 nM; Ki-A3 (selectivity versus other three subtypes) [3]: * (at least 10 times more selective than other three subtypes.)

**Q.** For `Nc1nc2ccc(Cl)cc2c2nc(-c3ccco3)nn12` [CGS-15943], which IC50 (human A3 receptor) is on record?
**A.** The IC50 was 0.0555 µM.

**Q.** With `CNC(=O)NCCCNc1nc(-c2ccccc2)nc2[nH]c(C)c(C)c12` [Compound 1310] as the compound, how does the activity at 10 µM ([1]; read-out: % activity @ 10 µM, A2a) read?
**A.** Its activity at 10 µM is 76%.

**Q.** Which IC50 ([5]; Table 10, Effect of N6-Substituent) does the source give for `Cc1[nH]c2nc(-c3ccccc3)nc(NCCCO)c2c1C` [Compound 1015] here?
**A.** Its IC50 is 3.71 µM.

**Q.** For `CC(=O)NCCNc1nc(-c2ccncc2)nc2[nH]c(C)c(CN(C)Cc3ccccc3)c12` [Compound 1608], which “Ki-A2a (selectivity versus other three subtypes)” value [1] is on record?
**A.** The value was “* (at least 5 times more selective than other three subtypes.)”.

**Q.** For `CC(=O)NCCNc1nc(-c2ccccc2)nc2[nH]c(C)c(C)c12` [Compound 1300], which Ki [1, 7] is on record?
**A.** The Ki was 18 to 48.6 nM.

**Q.** With `CC(Cc1ccccc1)Nc1ncnc2c1ncn2[C@@H]1O[C@H](CO)[C@@H](O)[C@H]1O` (single isomer, unassigned; (-)) [PIA, (-)-N6-(2-phenylisopropyl)-adenosine] as the compound, how does the reported affinity [6] read?
**A.** The reported affinity was “approximately 50 nM”.

**Q.** Which “Ki-A2a (selectivity versus other three subtypes)” value [1] does the source give for `c1ccc(-c2cc3c(N4CCNCC4)nc(-c4ccncc4)nc3[nH]2)cc1` [Compound 1604] here?
**A.** The value was “* (at least 5 times more selective than other three subtypes.)”.

**Q.** Which “Ki-A2a (selectivity versus other three subtypes)” value [1] does the source give for `OCC1CCCN(c2nc(-c3ccncc3)nc3[nH]ccc23)C1` (centres unmarked) [Compound 1607] here?
**A.** The value was “* (at least 5 times more selective than other three subtypes.)”.

**Q.** Which Ki [1, 7] does the source give for `Cc1[nH]c2nc(-c3ccccc3)nc(NCCCNC(=O)CCN)c2c1C` [Compound 1315] here?
**A.** Its Ki is 720 nM.

**Q.** And the Ki [2, 8]?
**A.** Its Ki is 3.4 nM.

**Q.** What about the Ki ([4]; read-out: Binding Ki (nM) A1, Table 13, Profile of Selective Adenosine Antagonists) of the same compound?
**A.** The Ki was 75 nM.

**Q.** What about the Ki ([3]; read-out: Binding Ki (nM) A3, Table 13) of the same compound?
**A.** Its Ki is 507 nM.

**Q.** For `Cc1[nH]c2nc(-c3ccsc3)nc(N[C@H]3CC[C@H](O)CC3)c2c1C` [Compound 704], which IC50 ([5]; Table 7, Effect of C2-Substituent) is on record?
**A.** The IC50 was 0.297 µM.

**Q.** And the Ki ([4]; read-out: Al Binding Ki, Table 7, Effect of C2-Substituent)?
**A.** Its Ki is 61.1 nM.

**Q.** With `OC[C@H]1CCCN1c1nc(-c2ccncc2)nc2[nH]ccc12` [Compound 1601] as the compound, how does the “Ki-A2a (selectivity versus other three subtypes)” value [1] read?
**A.** The value was “* (at least 5 times more selective than other three subtypes.)”.

**Q.** With `NC(=O)[C@H]1CCCN1c1nc(-c2cccc(F)c2)nc2[nH]ccc12` [Compound 1600] as the compound, how does the “Ki-A2a (selectivity versus other three subtypes)” value [1] read?
**A.** Its value is “* (at least 5 times more selective than other three subtypes.)”.

**Q.** Which Ki [1] does the source give for `O[C@H]1CC[C@H](Nc2nc(-c3cccc(F)c3)nc3[nH]ccc23)CC1` [Compound 1319, 4-(trans-4-hydroxycyclohexyl)amino-2-(3-fluorophenyl)-7H-pyrrolo [2,3d] pyrimidine] here?
**A.** Its Ki is 206 nM.

**Q.** And the Ki [2]?
**A.** The Ki was 802 nM.

**Q.** What about the Ki [3] of the same compound?
**A.** Its Ki is 270 nM.

**Q.** With `CNC(=O)N1CCCCC1CNc1nc(-c2ccccc2)nc2[nH]c(COc3cccc(Cl)c3)cc12` (centres unmarked) [Compound 1715] as the compound, how does the “Ki-A3 (selectivity versus other three subtypes)” value [3] read?
**A.** The value was “* (at least 10 times more selective than other three subtypes.)”.

**Q.** With `CC(=O)NCCNc1nc(-c2ccccc2)nc2[nH]c(CNc3ccccc3)cc12` [Compound 1404] as the compound, how does the Ki ([1]; read-out: Binding Data Ki (nM) A2a, Table 14) read?
**A.** The Ki was 31 nM.

**Q.** Which “Ki-A2a (selectivity versus other three subtypes)” value [1] does the source give for `OC[C@H]1C[C@@H](O)CN1c1nc(-c2ccncc2)nc2[nH]ccc12` [Compound 1605] here?
**A.** The value was “* (at least 5 times more selective than other three subtypes.)”.

**Q.** Which “Ki-A3 (selectivity versus other three subtypes)” value [3] does the source give for `OC[C@@H](Nc1nc(-c2ccccc2)nc2[nH]c(COc3cccc(Cl)c3)cc12)c1ccccc1` [Compound 1714] here?
**A.** Its value is “* (at least 10 times more selective than other three subtypes.)”.
